Experimental data published in patent publication US20100016221A1, “METHOD OF DEGRADING PROTEIN BY CHAPERONE-MEDIATED AUTOPHAGY” (RIKEN, priority 2008, published 2010).

How the values were obtained:
Format in all cases: cell-based, mouse
[1] = tested on: polyQ inclusions in 150Q Neuro2a cells (tNhtt-EGFP-150Q); assay: ArrayScan quantification of polyQ inclusion formation in inducible 150Q Neuro2a cells; conditions: constructs without mRFP, induced and differentiated for 24 hours
Method: (§1) Mouse neuroblastoma (Neuro2a) cells were maintained in Dulbecco's modified Eagle's medium (Sigma) supplemented with 10% heat-inactivated fetal bovine serum (Sigma), 100 U/ml penicillin and 100 μg/ml streptomycin (Invitrogen) at 37° C. in an atmosphere containing 5% CO2 and 95% air. Establishment of stable Neuro2a cell lines with the ecdysone-inducible mammalian expression system (Invitrogen), that express tNhtt-EGFP-16Q (16Q Neuro2a cells), tNhtt-EGFP-150Q (150Q Neuro2a cells) and tNhtt-EGFP-150Q-nls (150Q-nls Neuro2a cells) has been described earlier (T. Nagai et al., supra, H. Doi et al., supra, E. A. Zemskov et al., J Neurochem. 87, 2 (2003)). Neuro2a cells were differentiated with 5mM dbcAMP (N^6, 2′-O-dibutyryladenosine-3′,5′-cyclic monophosphate sodium salt) (Nacalai Tesque) and induced to express tNhtt-polyQ with 2 μM ponasterone A (ponA; Invitrogen) for indicated times. Neuro2a/FRT/TR cell line was generated as described in the protocol for Flp-in/T-Rex system (Invitrogen). Neuro2a tNhtt-62Q-kikGR cell line was generated by transfecting Neuro2a/FRT/TR cells with the pFRT-HD62-KikGR and pOG44 (Invitrogen) constructs using Lipofectamine 2000 reagent and selected with 200 μg/ml hygromycin. The expression of the pFRT-tNhtt-62Q-KikGR was induced by 18 doxycycline treatment of the cells. For the photo-induced kikGR cleavage, cells were exposed to ˜400 nm wavelength for 5 minutes. Rat pheochromocytoma (PC12) cells were grown in the same conditions as Neuro2a cells, except for the serum composition of 5% of fetal bovine and 10% of horse serum (Sigma). All transient transfections were performed with Lipofectamine 2000 (Invitrogen) according to the manufacturer's instruction.
(§2) For the quantification of the inclusions, cells were grown in 24-well plates for indicated periods, fixed in 4% paraformaldehyde, washed and incubated with Hoechst 33258 at 1/1000 dilution in PBS. Cells were analyzed by ArrayScan® V^TI High Content Screening (HSC) Reader (Cellomics) using Target Activation BioApplication (TABA). TABA analyzes images acquired by a HSC Reader and provides measurements of the intracellular fluorescence intensity and localization on a cell-by-cell basis.
(§3) In each well, at least 10000 cells were counted and quantified for the presence of the inclusions. Nuclei stained with Hoechst 33285 provided the autofocus target and their count gave the exact number of the quantified cells. The screening itself consisted of two scans using Hoechst, FITC (for GFP) and TRITC (for RFP) fluorescence. Firstly, number of inclusions in transfected cells was calculated when fluorescent spots at size of at least 5 pixels (magnification 20× for cytoplasmic and 40× for nuclear aggregates) with average GFP intensity more than 1500 in the RFP background were counted. Secondly, nuclei were defined as the objects of interest and the cells with average intensity more than 50 within 3 pixels from the nucleus were selected for the analysis. The percentage of the cells with aggregates was then calculated. When the constructs without mRFP were used for transfection, the procedure was same, except the RFP intensity was not measured. Scanning was performed with triplicate or quadruplicate in each experimental condition. Data was generated from the quantification of more than 250,000 cells in each experimental set-up.

[2] = tested on: polyQ inclusions in 150Q-nls Neuro2a cells (tNhtt-EGFP-150Q-nls); assay: ArrayScan quantification of polyQ inclusion formation in inducible 150Q-nls Neuro2a cells; conditions: 150Q-nls Neuro2a cells, constructs without mRFP, 48 hours after induction
Method: as §1, with “Rat pheochromocytoma (PC12) cells were grown in the same conditions as Neuro2a cells, except for the serum composition of 5% of fetal bovine and 10% of horse serum (Sigma). All transient transfections were performed with Lipofectamine 2000 (Invitrogen) according to the manufacturer's instruction.” left out
as §2
as §3, with “Secondly, nuclei were defined as the objects of interest and the cells with average intensity more than 50 within 3 pixels from the nucleus were selected for the analysis.” left out, “Scanning was performed with triplicate or quadruplicate in each experimental condition.” left out

150Q Neuro2a cells = assay: Cell death assay (propidium iodide uptake) in 150Q Neuro2a cells; conditions: after 60 hours of induction
Method: (§4) Mouse neuroblastoma (Neuro2a) cells were maintained in Dulbecco's modified Eagle's medium (Sigma) supplemented with 10% heat-inactivated fetal bovine serum (Sigma), 100 U/ml penicillin and 100 μg/ml streptomycin (Invitrogen) at 37° C. in an atmosphere containing 5% CO2 and 95% air. Establishment of stable Neuro2a cell lines with the ecdysone-inducible mammalian expression system (Invitrogen), that express tNhtt-EGFP-16Q (16Q Neuro2a cells), tNhtt-EGFP-150Q (150Q Neuro2a cells) and tNhtt-EGFP-150Q-nls (150Q-nls Neuro2a cells) has been described earlier (T. Nagai et al., supra, H. Doi et al., supra, E. A. Zemskov et al., J Neurochem. 87, 2 (2003)). Neuro2a cells were differentiated with 5mM dbcAMP (N^6, 2′-O-dibutyryladenosine-3′,5′-cyclic monophosphate sodium salt) (Nacalai Tesque) and induced to express tNhtt-polyQ with 2 μM ponasterone A (ponA; Invitrogen) for indicated times. Neuro2a/FRT/TR cell line was generated as described in the protocol for Flp-in/T-Rex system (Invitrogen). […]
(§5) For quantification of cell death, 5 μg/ml each of Hoechst 33342 and propidium iodide (PI) were added to differentiated and induced Neuro2a cells transiently transfected with either of the tested constructs (FIG. 6A). After 10 minutes at 37° C., the number of cells with PI uptake over the total number of cells was calculated by ArrayScan.

150Q-nls Neuro2a cells = assay: Cell death assay (propidium iodide uptake) in 150Q-nls Neuro2a cells; conditions: after 48 hours of induction
Method: as §4, §5

HSC70bm-(QBP1)2 (MARVKKDQAEPLHRKFERQPPGSNWKWWPGIFDSNWKWWPGIFD) [HQ]
decrease of aggregation compared to control counterparts (S and HS) [1]: 58.5%
reduction of aggregation compared to control counterparts (S and HS) [2]: 45.2%
decrease of the percentage of PI-positive cells (150Q Neuro2a cells): 37.4%
decrease of the percentage of PI-positive cells (150Q-nls Neuro2a cells): 47.2%
